The nature of the data set: Release study 8-4b: degradation of model conjugates M20-M27 in aqueous DMF:PBS at 37 °C, HPLC-UV/MS. The format is physicochemical. To be noted: 1 mM in 2:1 DMF:PBS, first order fit, rounded to nearest whole day, read-out: Calculated stability t1/2, parent (converted). As to the method:
8-4b. M20-M27 In Vitro Release Study
In this study, a series of model traceless linker-drug conjugates M20-M27 was held in aqueous solution at 37° C. These reactions were sampled at various timepoints and analyzed to determine the concentration of remaining starting compound. The analytical method was not optimized to determine concentration of the amine-containing drug. Half-life of degradation for the parent was calculated.
Method for Estimation of Conjugate Degradation Rates for M20-M27
Each compound M20-M27 was prepared as a 0.1 M stock solution in DMF. A 35 μL aliquot of each solution was added to 3.465 mL of 2:1 DMF:PBS (for compound M24: 3:1 DMF:PBS) to obtain 1 mM solutions of each compound M20-M27. The reaction vials were held at 37° C. At each time point (e.g., 0, 1, 3, 8, 14, 21, 28, 35, 49, 56, 70, 92 days) analytical samples were prepared by collecting 150 μL from each 1 mM solution and diluting with 75 μL DMF. Two analytical samples were collected from each reaction vial at each time point and stored at 4° C. All samples were analyzed in one batch after completion of the release study. Each sample was analyzed twice using an analytical HPLC method described below.
The composition of the reaction solution was evaluated at each timepoint using HPLC. Compound M20-M27 peaks were assigned by MS detection, and the integration of the peak from the chromatogram generated using UV absorbance detection at 272 nm was determined. The mean peak area for each compound M20-M27 on Day 0 was assigned a normalized value of 100. The absolute area under the curve at each timepoint was compared with these values. Run-to-run peak area reproducibility was typically within 20% on strong signal and considerably worse on weak signals, so normalized signals above 100 likely correspond to values at or approaching 100 (likely 90-100, within experimental error). The percentage of compounds M20-M27 remaining in the solution were calculated by dividing the relevant peak area by the mean area that was assigned a normalized value of 100 and multiplying the result by 100. The percentage of compound M20-M27 present in the solution was plotted versus time and the half-life of degradation was estimated using curve-fitting software assuming first order kinetics.
Analytical HPLC-MS Conditions for Study 8.4b.
All settings the same as for analytical HPLC-MS conditions for study 8.4a except the following: Mobile Phases: A=5 mM ammonium hydroxide in water; B=5 mM ammonium hydroxide in acetonitrile; Flow Rate: 400 μL/min: Gradient (time/% B): 0/10, 0.5/10, 4/80, 8/80, 8.1/10, 12/10. Divert valve switched at 0.5 minutes after sample injection.

Consider 1 compound from patent US10751417B2, “Sustained release delivery systems comprising traceless linkers” (NOVARTIS AG, priority 2017, dated 2020).

In the case of `CC[Si](CC)(OCC1CN(C(=O)CCNC(=O)OCc2ccccc2)CCN1CC(=O)NCc1ccc(OC)cc1)OC(C)C` (stereo not shown) [M20, Benzyl N-(3-(3′-(((diethyl(isopropoxy)silyl)oxy)methyl)-4′-(2″-((4′″-methoxybenzyl)amino)-2″-oxoethyl)piperazin-1′-yl)-3-oxopropyl)carbamate], the half-life at 1 mM was 51 days.
